Assay results published in patent US20120041167A1, “POLY(GLUTAMIC ACID)-DRUG CONJUGATE WITH AN AMINO ACID AS A LINKER” (Institute of Pharmacology and Toxicology Academy of …, priority 2006, published 2012).

Assays:
[1] = system: human liver cancer cells (HepG2); assay: Activities against transplanted human liver cancer tumor in mice; assay type: in vivo, Balb/c-nu/nu nude mice; details: HepG2 xenograft, 20 days after administration; for Inhibition rate (%): tumor weight vs control group
Protocol: Balb/c-nu/nu nude mice (5 to 7 weeks old, 16-20 g) were randomly grouped. The mice were inoculated subcutaneously with 0.1 ml of a cell suspension containing 10^6 human liver cancer cells (HepG2). Upon the tumor volume having reached 50 mm^3, the mice were intravenously injected with a dose of a conjugate or a free drug. Twenty days after the administration, the animals were sacrificed and their body weight and tumor weight were measured. Tumor inhibition rate was calculated according to the following equation: […]

[2] = system: human breast cancer cells (Bacp-37); assay: Activities against transplanted human breast cancer tumor in mice; assay type: in vivo, Balb/c-nu/nu nude mice; details: Bacp-37 xenograft, 20 days after administration; for Inhibition rate (%): tumor weight vs control group
Protocol: Balb/c-nu/nu nude mice (5 to 7 weeks old, 16-20 g) were randomly grouped. The mice were inoculated subcutaneously with 0.1 ml of a cell suspension containing 10^6 human breast cancer cells (Bacp-37). Upon the tumor volume having reached 50 mm^3, the mice were intravenously injected with a dose of a conjugate or a free drug. Twenty days after the administration, the animals were sacrificed and their body weight and tumor weight were measured.

[3] = single i.v. dose 100 mg/kg (as free drug)

For `CC(=O)O[C@@]12CO[C@@H]1C[C@H](O)[C@@]1(C)C(=O)[C@H](O)C3=C(C)[C@@H](OC(=O)[C@H](O)[C@@H](NC(=O)OC(C)(C)C)c4ccccc4)C[C@@](O)([C@@H](OC(=O)c4ccccc4)[C@H]21)C3(C)C` [Docetaxel], the “Change of body weight (g)” value ([1]; i.v. 100 mg/kg (as free drug)) was “+6.92 g”, the “Weight of tumor” value ([1]; i.v. 100 mg/kg (as free drug)) was 0.56 g and the “Inhibition rate (%)” value ([1]; i.v. 100 mg/kg (as free drug)) was 55.56%. For the same compound, the “Number of animals (final/initial)” value [1, 3] was 6/6, the “Change of body weight (g)” value ([2]; i.v. 100 mg/kg) was “+6.29 g” and the “Weight of tumor” value ([2]; i.v. 100 mg/kg) was 0.35 g. The “Number of animals (final/initial)” value ([2]; single i.v. dose 100 mg/kg) was 6/6.
With `Nc1ccn([C@@H]2O[C@H](CO)[C@@H](O)C2(F)F)c(=O)n1` [Gemcitabine] the “Change of body weight (g)” value ([1]; i.v. 5 mg/kg (as free drug)) was “+4.77 g”, the “Weight of tumor” value ([1]; i.v. 5 mg/kg (as free drug)) was 0.45 g and the “Inhibition rate (%)” value ([1]; i.v. 5 mg/kg (as free drug)) was 64.28%. For the same compound, the “Number of animals (final/initial)” value ([1]; single i.v. dose 5 mg/kg (as free drug)) was 4/6, the “Change of body weight (g)” value ([2]; i.v. 5 mg/kg) was “+5.08 g” and the “Weight of tumor” value ([2]; i.v. 5 mg/kg) was 0.51 g. The “Inhibition rate (%)” value ([2]; i.v. 5 mg/kg) was 63.08% and the “Number of animals (final/initial)” value ([2]; single i.v. dose 5 mg/kg) was 5/6.
In the case of `CC(=O)O[C@H]1C(=O)[C@@]2(C)[C@H]([C@H](OC(=O)c3ccccc3)[C@]3(O)C[C@H](OC(=O)[C@H](O)[C@@H](NC(=O)c4ccccc4)c4ccccc4)C(C)=C1C3(C)C)[C@]1(OC(C)=O)CO[C@@H]1C[C@@H]2O` [Paclitaxel], the “Change of body weight (g)” value ([1]; i.v. 100 mg/kg (as free drug)) is reported as “+5.38 g”, the “Weight of tumor” value ([1]; i.v. 100 mg/kg (as free drug)) is reported as 0.54 g and the “Inhibition rate (%)” value ([1]; i.v. 100 mg/kg (as free drug)) is reported as 57.14%. For the same compound, the “Number of animals (final/initial)” value [1, 3] was 5/6, the “Change of body weight (g)” value ([2]; i.v. 100 mg/kg) was “+5.91 g” and the “Weight of tumor” value ([2]; i.v. 100 mg/kg) was 0.48 g. The “Inhibition rate (%)” value ([2]; i.v. 100 mg/kg) was 65.22% and the “Number of animals (final/initial)” value ([2]; single i.v. dose 100 mg/kg) was 5/6.
“[N-acetyl-poly-(L)-glutamic acid]-[2′-O-(L-alanyl)-docetaxel] conjugate [Compound I12]” was tested, and the “Weight of tumor” value ([2]; i.v. 100 mg/kg) was 0.34 g and the “Inhibition rate (%)” value ([2]; i.v. 100 mg/kg) was 75.36%.
With “[N-acetyl-poly-(L)-glutamic acid]-[2′-O-(L-alanyl)-paclitaxel] conjugate [Compound I10]” the “Weight of tumor” value ([2]; i.v. 100 mg/kg) was 0.29 g and the “Inhibition rate (%)” value ([2]; i.v. 100 mg/kg) was 78.99%.
For “[N-acetyl-poly-(L)-glutamic acid]-[2′-O-(L-isoleucyl)-docetaxel] conjugate [Compound I18]”, the “Weight of tumor” value ([2]; i.v. 100 mg/kg) was 0.73 g and the “Inhibition rate (%)” value ([2]; i.v. 100 mg/kg) was 47.10%.
“[N-acetyl-poly-(L)-glutamic acid]-[2′-O-(L-valyl)-paclitaxel] conjugate [Compound I22]” was tested, and the “Weight of tumor” value ([2]; i.v. 100 mg/kg) was 0.41 g and the “Inhibition rate (%)” value ([2]; i.v. 100 mg/kg) was 70.29%.
In the case of “[N-acetyl-poly-(L)-glutamic acid]-[2′-O-(glycyl)-docetaxel] conjugate [Compound I6]”, the “Weight of tumor” value ([2]; i.v. 100 mg/kg) is reported as 0.47 g and the “Inhibition rate (%)” value ([2]; i.v. 100 mg/kg) is reported as 65.94%.
In the case of “[N-acetyl-poly-(L)-glutamic acid]-[2′-O-(glycyl)-paclitaxel] conjugate [Compound I4]”, the “Weight of tumor” value ([2]; i.v. 100 mg/kg) is reported as 0.42 g and the “Inhibition rate (%)” value ([2]; i.v. 100 mg/kg) is reported as 69.56%.
With “[N-acetyl-poly-(L)-glutamic acid]-[5′-O-(L-alanyl)-gemcitabine] conjugate [Compound I8]” the “Weight of tumor” value ([2]; i.v. 5 mg/kg) was 0.39 g and the “Inhibition rate (%)” value ([2]; i.v. 5 mg/kg) was 71.73%.
For “[poly-(L)-glutamic acid]-[5′-O-(glycyl)-gemcitabine] conjugate [Compound I1]”, the “Weight of tumor” value ([2]; i.v. 5 mg/kg) was 0.46 g and the “Inhibition rate (%)” value ([2]; i.v. 5 mg/kg) was 71.01%.
